Data set [1] deals with MDCK cells. In words: Detection of phosphate compound in cell (Test Example 1). It is filed as in vitro ADME. As to conditions: 35° C., 20 hours, HPLC with radioactivity detector. The procedure: 5 ml of an E′-MEM culture medium (containing 1% bovine serum albumin and 3% vitamin solution) containing a compound, 6-fluoro-3-hydroxy-2-[2-^14C]pyrazinecarboxamide, which ha-d been ^14C-labeled at position 2 of the pyrazine ring, was added to MDCK cells that had been monolayer-cultured on a 55 cm^2 culture plate. After completion of culture under conditions of 35° C. and 5% CO2 for 20 hours, 6-fluoro-3-hydroxy-2-[2-^14C]pyrazinecarboxamide and a converted compound were extracted from cell fractions, using a 66.6% acetonitrile solution. The extract was lyophilized and concentrated, and then analysis was carried out under the HPLC analysis conditions indicated below.

The test system of data set [2] is influenza virus A/PR/8/34. In words: Anti-influenza effect (plaque inhibition in MDCK cells). As to conditions: PR/8, MDCK, 72 h, read-out: Inhibition rate (plaque inhibition rate). It is filed as cell-based.
The subject of data set [3] is MDCK cells. The data set can be described thus: Detection of deprotected compound in cell (Test Example 2). It is filed as in vitro ADME. As to conditions: 37° C., 1 hour, HPLC. The procedure:
The compound of Example 2 was added to MDCK cells suspended in a Hank's balanced salt solution, and the mixture was incubated at 37° C. for 1 hour. Thereafter, the obtained product was layered on silicon oil (KF-99), followed by centrifugation at 4° C. Cell fractions from the precipitate were suspended and frozen-thawed in a mobile phase indicated below, and the obtained solution was analyzed under the HPLC analysis conditions indicated below.

Data set [4] has as its system bovine diarrhea virus (BVDV) NADL. The data set can be described thus: Anti-BVDV effect (plaque inhibition in MDBK cells). As to conditions: Bovine viral diarrhea virus isolates and strains, 72 h, 100 μg/mL test compound, 70 PFU/well, 3 days, read-out: Inhibition rate (plaque inhibition rate). It is filed as cell-based. The procedure:
MDBK cells that had fully grown in a 6-well culture plate were infected with bovine diarrhea virus (BVDV) NADL at 70 PFU/well. After 60 minutes, the infection solution was removed, and a test culture solution (E′-MEM) containing 5% horse serum and 1% agar (SeaPlaque Agar) that contained a 100 μg/mL test compound was added thereto. The mixture was fully solidified and then cultured for 3 days under conditions of 37° C., a humidity of 100% and 5% CO2. After completion of the culture, the test plate was fixed with a 3% formaldehyde solution, and the agar medium was removed with running water, followed by staining with a 1% crystal violet solution, so as to count the number of plaques. The plaque inhibition rate was expressed by the percentage obtained by comparing with a control to which no test compounds were added.

Data set [5] is described as follows: Stability during the process of pharmaceutical preparation. The note with it: compared with anhydrides. It is filed as physicochemical.
The conditions of data set [6]: mouse, in vivo, 300 mg/kg. The procedure:
Compound A was administered into the caudal vein of a mouse at a dose of 300 mg/kg. 30 minutes after the administration, 1.6 g of the liver was excised, and it was then ground under ice cooling, while adding thereto 22.5 mL of 70% methanol that had been cooled to −20° C., so that compound A and a phosphate(s) form were extracted. 10 mL of the supernatant of the extract centrifuged at 4° C. for 10 minutes was purified under the condition indicated below, using a solid extraction cartridge (Varian BOND ELUT SAX HF 2 g/12 mL; eluted with 0.01 M to 1.0 M KCl) pretreated with 12 mL of methanol and 12 mL each of 1.0 M and 0.005 M KCl.
The phosphate form contained in 5 mL of No. 3 0.05 M KCl eluate and a synthetic monophosphate compound (a compound obtained in Reference Example 30) were identical in terms of HPLC retention time and UV spectrum in HPLC analysis (HPLC-1) described in HPLC conditions. In addition, the phosphate form contained in 5 mL of No. 1 0.5 M KCl eluate and a synthetic diphosphate compound (a compound obtained in Reference Example 31) were identical in terms of HPLC retention time in HPLC analysis (HPLC-2) described in HPLC conditions. […]

Data set [7] has as its system MDBK cells. The data set can be described thus: Detection of triphosphate compound in cell by addition of compound A. The note with it: 37° C., 24 hours. It is filed as in vitro ADME. The procedure:
10 ml of an E′-MEM culture medium (containing 0.5% fetal bovine serum) containing compound A was added to MDBK cells that had been monolayer-cultured on a 55 cm^2 culture plate. After completion of culture under conditions of 37° C. and 5% CO2 for 24 hours, the culture was removed using a cell scraper, and the culture medium was removed by centrifugation. Thereafter, 5% trichloroacetic acid was added to the obtained cell fractions, so that a converted compound was extracted. An equal amount of 20% trioctylamine-containing pentane was added to the extract, and the obtained water layer was then concentrated using a centrifugal concentrator. In the above concentrate, a component whose HPLC retention time matches that of a synthetic compound of triphosphates (a compound obtained in Reference Example 22) was detected.

Data set [8] has as its target T1, Influenza virus polymerase (crude enzyme from virus particles) (Influenza A virus, UniProt P03431).
T1 construct: these particles were used as polymerase crude enzymes; from tissue; host or cells: influenza virus particles lysed with Triton N101/LPC (crude enzyme)
The data set can be described thus: Polymerase inhibition test (influenza virus). It is filed as biochemical. The note with it: 30° C., 60 minutes, 32P-GTP incorporation, read-out: 50% inhibition concentration. As for the experimental part: Influenza virus particles were treated with a dissolving solution (100 mM Tris-HCl (pH 8), 100 mM KCl, 5 mM MgCl2, 1.5 mM DTT, 5% glycerol, 1.5% Triton N101, 1% LPC), and these particles were used as polymerase crude enzymes. Each of the test compounds with different concentrations was added to a reaction buffer (100 mM Tris-HCl (pH 8.0), 100 mM KCl, 5 mM MgCl2, 1 mM DTT, 0.25% Triton N101, 0.25 mM ApG, 0.1 mM ATP, 0.05 mM CTP, 0.05 mM UTP, 0.0005 mM GTP, ^32P-GTP, crude enzyme), followed by incubation at 30° C. for 60 minutes. Thereafter, 10% trichloroacetic acid (TCA) was added thereto, and the mixture was retained on ice for 60 minutes. Thereafter, it was dropped on a GF/C filter, and the filter was then washed with 5% TCA. The filter was dried, and scintillation cocktail was added thereto. The radioactivity was determined using a liquid scintillation counter. The measurement value was given as a 50% inhibition concentration, providing that a group in which no test compounds were added was defined as 100%.

In data set [9] the target is human RNA polymerase (Hela cell nucleus extract) (Homo sapiens, UniProt P24928+P30876). The data set can be described thus: Human RNA polymerase inhibition test. It is filed as biochemical. As to conditions: 30° C., 1 hour, read-out: 50% inhibition concentration. The procedure: A Hela cell nucleus extract (Promega) was used as human RNA polymerase for the test. The pCMP script was cleaved with restriction enzymes and then purified, and it was used as a DNA template for the test.
Each of the test compounds with different concentrations was added to a reaction buffer (Hela cell nucleus extract, 3 mM MgCl2, 0.4 mM each of ATP, UTP and CTP, 0.016 mM GTP, 16 μg/mL DNA template, 0.4 mCi/mL [α-^32P]GTP), followed by incubation at 30° C. for 1 hour. After completion of the reaction, the reaction solution was dropped on a DE81 filter, and the filter was then washed with 5% Na2HPO4 solution 3 times for 30 minutes, and then with distilled water once for 1 minute. The filter was dried, and scintillation cocktail was added thereto. The radioactivity was determined using a liquid scintillation counter. The measurement value was given as a 50% inhibition concentration, providing that a group in which no test compounds were added was defined as 100%.

For data set [10], the target named is T2, HCV polymerase (NS5B region of hepatitis C virus) (Hepatitis C virus genotype 1a, UniProt P27958).
T2 construct: The NS5B region of hepatitis C virus was produced in Escherichia coli; made in house; host or cells: Escherichia coli
In words: Polymerase inhibition test (hepatitis C virus). As to conditions: NS5B produced in Escherichia coli, 30° C., 2 hours; read-out: 50% inhibition concentration. It is filed as biochemical. The procedure: The NS5B region of hepatitis C virus was produced in Escherichia coli, and it was used as HCV polymerase for the test. The sequence of the 3′-region of HCV was prepared by the in vitro transcription method, and it was used as an RNA template for the test.
Each of the test compounds with different concentrations was added to a reaction buffer (20 mM Tris-HCl (pH 8.0), 0.05 mM MnCl2, 1 mM DTT, 20 units RNase inhibitor, [α-^32P]GTP, 0.05 mM each of ATP, CTP and UTP, and 2 μg/mL RNA template), followed by incubation at 30° C. for 2 hours. Thereafter, 10% TCA was added to terminate the reaction. Thereafter, the reaction solution was dropped on a DE81 filter, and the filter was then washed with 5% TCA. The filter was dried, and scintillation cocktail was added thereto. The radioactivity was determined using a liquid scintillation counter. The measurement value was given as a 50% inhibition concentration, providing that a group in which no test compounds were added was defined as 100%.

SMILES strings stand for the structures.

As to `NC(=O)[14c]1nc(F)cnc1O` [6-fluoro-3-hydroxy-2-[2-^14C] pyrazinecarboxamide], in [1], the “monophosphate (Reference Example 15) and triphosphate (Reference Example 16) in cell fractions” value is “detected”.

In the case of `CC(C)(C)C(=O)SCCOP(=O)(OCCSC(=O)C(C)(C)C)OC[C@H]1O[C@@H](n2ccnc(C(N)=O)c2=O)[C@H](O)[C@@H]1O` [Example 2, 2,2-dimethyl-thiopropionic acid S-(2-[[(2R,3S,4R,5R)-5-(3-carbamoyl-2-oxo-2H-pyrazine-1-yl)-3,4-dihydroxy-tetrahydro-furan-2-ylmethoxy]-[2-(2,2-dimethyl-propionylsulfanyl)-ethoxy]-phosphoryloxy]-ethyl) ester], the inhibition at 100 µg/mL in data set [2] and in data set [4] was 100% throughout. In addition, the “monophosphate as deprotected compound in cell fractions” value in data set [3] is reported as “detected”.

In the case of `NC(=O)c1nccn([C@@H]2O[C@H](CO)[C@@H](O)[C@H]2O)c1=O.O` [Example 29 (2), 4-[(2R,3R,4S,5R)-3,4-dihydroxy-5-(hydroxymethyl)tetrahydro-2-furanyl]-3-oxo-3,4-dihydro-2-pyrazinecarboxamide monohydrate], in [5], the “stability during the process of pharmaceutical preparation” value is on record as “excellent stability”.

For `NC(=O)c1nccn([C@@H]2O[C@H](CO)[C@@H](O)[C@H]2O)c1=O` [Example 29, 4-[(2R,3R,4S,5R)-3,4-dihydroxy-5-(hydroxymethyl)tetrahydro-2-furanyl]-3-oxo-3,4-dihydro-2-pyrazinecarboxamide], the inhibition at 100 µg/mL in [2] and in data set [4] was 100% throughout. In addition, the “conversion into phosphate forms in the liver” value in [6] is “converted in vivo into a monophosphate, then into a diphosphate form, and then into a triphosphate”. For the same compound, in [7], the “component whose HPLC retention time matches the synthetic triphosphate (Reference Example 22) in cell extract” value is listed as “detected”.

In the case of `NC(=O)c1nccn([C@@H]2O[C@H](COP(=O)(O)OP(=O)(O)OP(=O)(O)O)C[C@H]2O)c1=O` [Reference Example 25, {(2S,4R,5R)-5-[3-(aminocarbonyl)-2-oxo-1(2H)-pyrazinyl]-4-hydroxytetrahydro-2-furanyl} methyl triphosphate], the IC50 was 28 µM in data set [8], more than 200 µM in [9] and 1.6 µM in data set [10].

Usually inhibition stands for the change of the read-out against control, counted positive when it falls.

The values above are taken from US20040235761A1, “Novel virus proliferaton inhibition/virucidal method and novel pyradine nucleotide/pyradine nucleoside analogue” (priority 2001, published 2004).
